Laboratory results as given in the supplement of paper PMC10307832.

Legend:
Experiment in all cases: relative viability (nuclei count vs DMSO), 5 days (fraction); higher = more cells survive
Bosutinib + Trametinib = compound: COc1cc(Nc2c(C#N)cnc3cc(OCCCN4CCN(C)CC4)c(OC)cc23)c(Cl)cc1Cl [Bosutinib] + CC(=O)Nc1cccc(-n2c(=O)n(C3CC3)c(=O)c3c(Nc4ccc(I)cc4F)n(C)c(=O)c(C)c32)c1 [Trametinib] (partner 0.02 µM)
In short: (§1)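 Lung cancer cell lines were pin-tool dosed in 1536-well plates on the day after seeding, with either a lone drug or a fixed anchor-drug dose plus five library-drug doses (not always all listed) in √10 steps. Nuclei were counted on 4× images after 5 days. Relative viability is the ratio of treated-well to vehicle-well nuclei counts, with each value a median of duplicate plates.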

Bosutinib + Pictilisib = compound: COc1cc(Nc2c(C#N)cnc3cc(OCCCN4CCN(C)CC4)c(OC)cc23)c(Cl)cc1Cl [Bosutinib] + CS(=O)(=O)N1CCN(Cc2cc3nc(-c4cccc5[nH]ncc45)nc(N4CCOCC4)c3s2)CC1 [Pictilisib] (partner 1 µM)
In short: as §1

Bosutinib + Crizotinib = compound: COc1cc(Nc2c(C#N)cnc3cc(OCCCN4CCN(C)CC4)c(OC)cc23)c(Cl)cc1Cl [Bosutinib] + C[C@@H](Oc1cc(-c2cnn(C3CCNCC3)c2)cnc1N)c1c(Cl)ccc(F)c1Cl [Crizotinib] (partner 1 µM)
In short: as §1

Bosutinib + AZD7762 = compound: COc1cc(Nc2c(C#N)cnc3cc(OCCCN4CCN(C)CC4)c(OC)cc23)c(Cl)cc1Cl [Bosutinib] + NC(=O)Nc1cc(-c2cccc(F)c2)sc1C(=O)N[C@H]1CCCNC1 [AZD7762] (partner 0.2 µM)
In short: as §1

Bosutinib + Olaparib = compound: COc1cc(Nc2c(C#N)cnc3cc(OCCCN4CCN(C)CC4)c(OC)cc23)c(Cl)cc1Cl [Bosutinib] + O=C(c1cc(Cc2n[nH]c(=O)c3ccccc23)ccc1F)N1CCN(C(=O)C2CC2)CC1 [Olaparib] (partner 8 µM)
In short: as §1

Cell Line	relative viability (Bosutinib + Trametinib; first compound 0.01 µM)	relative viability (Bosutinib + Trametinib; first compound 0.03162 µM)	relative viability (Bosutinib + Trametinib; first compound 0.1 µM)	relative viability (Bosutinib + Trametinib; first compound 1 µM)	relative viability (Bosutinib + Pictilisib; first compound 0.01 µM)	relative viability (Bosutinib + Pictilisib; first compound 0.03162 µM)	relative viability (Bosutinib + Pictilisib; first compound 0.1 µM)	relative viability (Bosutinib + Pictilisib; first compound 1 µM)	relative viability (Bosutinib + Crizotinib; first compound 0.01 µM)	relative viability (Bosutinib + Crizotinib; first compound 0.03162 µM)	relative viability (Bosutinib + Crizotinib; first compound 0.1 µM)	relative viability (Bosutinib + Crizotinib; first compound 1 µM)	relative viability (Bosutinib + AZD7762; first compound 0.01 µM)	relative viability (Bosutinib + AZD7762; first compound 0.03162 µM)	relative viability (Bosutinib + AZD7762; first compound 0.1 µM)	relative viability (Bosutinib + AZD7762; first compound 1 µM)	relative viability (Bosutinib + Olaparib; first compound 0.01 µM)	relative viability (Bosutinib + Olaparib; first compound 0.03162 µM)	relative viability (Bosutinib + Olaparib; first compound 0.1 µM)	relative viability (Bosutinib + Olaparib; first compound 1 µM)
NCI-H1734	0.693	0.711	0.726	0.591	0.507	0.427	0.447	0.447	0.737	0.656	0.658	0.537	0.632	0.512	0.512	0.369	0.629	0.62	0.584	0.488
NCI-H596	0.842	0.765	0.825	0.663	0.398	0.369	0.405	0.392	0.923	0.884	0.989	0.743	1.08	1.07	1.08	0.918	0.73	0.715	0.705	0.564
NCI-H1755	0.706	0.798	0.856	0.76	0.45	0.497	0.509	0.287	0.804	0.953	0.903	0.688	0.412	0.462	0.446	0.418	0.874	0.998	0.861	0.885
NCI-H647	0.488	0.483	0.375	0.221	0.508	0.436	0.432	0.372	1.03	1.23	1.07	0.687	0.608	0.516	0.421	0.252	0.6	0.474	0.481	0.287
HCC-15	0.396	0.457	0.383	0.328	0.799	0.829	0.725	0.773	0.809	0.846	0.844	0.771	1.23	1.12	1.23	1.23	0.652	0.699	0.695	0.661
NCI-H2126	0.528	0.546	0.559	0.536	0.496	0.517	0.522	0.506	0.934	1.02	0.987	0.957	0.982	1.04	1.03	1.04	0.892	0.885	0.916	0.936
NCI-H2085	0.564	0.467	0.54	0.5	0.441	0.45	0.425	0.489	0.799	0.685	0.826	0.874	1.1	0.903	0.939	0.65	0.717	0.72	0.709	0.89
BEN	1.02	0.855	1.01	0.804	0.548	0.706	0.664	0.429	0.836	0.857	0.795	0.519	0.608	0.697	0.675	0.658	1.04	1.05	1.04	0.735
NCI-H650	0.907	0.918	0.961	0.975	0.913	0.878	0.914	0.997	0.791	0.644	0.73	0.808	0.908	0.992	1.04	0.981	0.407	0.357	0.424	0.424
LCLC-103H	0.747	0.685	0.672	0.656	0.632	0.68	0.702	0.646	1.03	1.11	0.992	0.849	0.854	0.74	0.827	0.771	0.734	0.774	0.741	0.782
PC-14	0.721	0.675	0.491	0.13	0.61	0.588	0.449	0.125	0.807	0.928	0.788	0.313	0.351	0.284	0.287	0.193	0.241	0.342	0.208	0.21
NCI-H1915	0.306	0.291	0.295	0.253	1.04	0.988	1.02	0.968	0.932	0.89	0.98	0.956	0.718	0.647	0.654	0.572	0.259	0.256	0.258	0.26
